Laboratory results from patent US20190367737A1, “CELL-PENETRATING FLUORESCENT DYES WITH SECONDARY ALCOHOL FUNCTIONALITIES” (Max-Planck-Gesellschaft zur foerderung der Wissenschaften …, priority 2016, published 2019).
Where “and” joins values, the source holds several entries; their conditions need not be identical. Identical values can stand only once. Like-named read-outs stand apart in the source and are kept apart here. One block for each compound: values may come before it.

Legend:
[1] = Formation and stability of the NHS ester; format: physicochemical
Experimental: • Three stock solutions (A, B and C) were prepared. Solution A: 22 mg HATU (1-[bis(dimethylamino)methylene]-1H-1,2,3-triazolo[4,5-b]pyridinium 3-oxid hexafluorophosphate) in dry DMF (0.10 mL); solution B: Et3N (10 mg) in dry DMF (0.10 mL); solution C: N-hydroxysuccinimide (19 mg) in dry DMF (0.10 mL). To a solution of dye 5 (1.7 mg, 2.6 μmol) in dry DMF (0.10 mL), solutions A, B and C were added successively (14 μL of each solutions) under argon, and the mixture was stirred for 30 min at room temperature. HPLC analysis indicated the conversion degree of 94-95%. […] After removing DMF in vacuo, amide 5-Halo was isolated by preparative HPLC (˜1 mg, 46%), dissolved in DMSO (400 μL), and this stock-solution was used (after dilution with aqueous PBS to 1-5 μM) in labeling experiments with living cells (see section with imaging results). ESI-MS (C41H44C1F6N308, 855.27), positive mode: m/z (rel. int., %)=856 (100) [M+H]^+. HR-MS, ESI (positive mode): m/z=878.2591 (found [M+Na]^+), 878.2613 (calc.).

[2] = cited from earlier work
[3] = Solubility in water and organic solvents; format: physicochemical; settings: water, aqueous solutions, alcohols, DMSO, DMF, organic solvents as stated
[4] = Absorption, emission and fluorescence quantum yield of the dyes; format: physicochemical; settings: for fluorescence quantum yield relative to Oxazine 1: PBS 7.4, Oxazine 1 Φfl=0.14 in ethanol; for fluorescence quantum yield: in PBS / aqueous buffers
Experimental: Absorption spectra were recorded with a Varian Cary 4000 UV-Vis double-beam spectrophotometer (Agilent Technologies, USA). For the determination of the absorption spectra, quartz cells with a 1 cm path length were used. Emission spectra and fluorescence quantum yield were obtained on a Quantaurus-QY Absolute PL quantum yield spectrometer C11347 (Hamamatsu Photonics, Japan) or on a Varian Cary Eclipse fluorescence spectrometer (Agilent Technologies, USA).

[5] = tested on: vimentin-HaloTag fusion protein in U2OS cells; experiment: Live-cell labeling, confocal and STED imaging, U2OS cells; format: cell-based; settings: 1 μM, 20 minutes at 37° C.
Experimental: (§1) Either HeLa or U2OS cells were used. Cells were grown on #1.5 coverslips and cultured at 37° C. with 5% CO2 in DMEM (Dulbecco's modified Eagle's medium) supplemented with 10% FBS (fetal bovine serum), 1% sodium pyruvate and 1% penicillin/streptomycin. The U2OS cell line is a stable cell line which has a stable expression of the vimentin-HaloTag fusion protein (M. Ratz, I. Testa, S. W. Hell, S. Jakobs, Sci. Rep. 2015, 5, 9592). For the expression of vimentin-HaloTag fusion protein in HeLa cells, cells were transfected with 3 μg DNA/well using TurboFect™ Transfection Reagent (Fermentas/Thermo Scientific™, Life Technologies brand) in a 6 well plate. […]
(§2) Fluorescence detection was done in two spectral detection channels, 605-625 nm and 650-720 nm. […]
14a-Halo was excited with a pulsed 561 nm laser and fluorescence was detected in both detection windows: 605-625 nm and 650-720 nm. […] For the STED image the fluorescence counts of 3 scans per line were accumulated with a pixel dwell time of 15 μs. […]
6-ROX-Halo was excited with a pulsed 561 nm laser and fluorescence was detected in two detection windows: 605-625 nm and 650-720 nm. […] For the STED image the fluorescence counts of 3 scans per line were accumulated with a pixel dwell time of 15 μs. […]
19-Halo was excited with a pulsed 640 nm laser and fluorescence was detected from 650-720 nm. […]

[6] = D0.5 in 1,4-dioxane/water (closing into colorless spirolactone form); format: physicochemical
[7] = tested on: tubulin filaments in HeLa cells; experiment: Live-cell tubulin labeling, confocal and STED imaging, HeLa cells; format: cell-based; settings: 1-5 μM, 20 minutes at 37° C.
Experimental: as §1, §2
19-Tubulin was excited with a pulsed 640 nm laser and fluorescence was detected from 650-720 nm. […] For the STED image the fluorescence counts of 4 scans per line were accumulated with a pixel dwell time of 7 μs. […]
33-Tubulin was excited with a pulsed 640 nm laser and fluorescence was detected from 650-720 nm. […] The STED image was recorded with a pixel dwell time of 15 μs. […]

[8] = aqueous PBS buffer, parent Q-rhodamine
[9] = aqueous solutions, dye 5 isomer 3
[10] = commercial dyes, solvent not stated

Compound: 5(6)-carboxy-Q-rhodamine
stability of N-hydroxysuccinimidyl (NHS) ester [1]: does not form a stable N-hydroxysuccinimidyl ester | absorption maximum [2, 8]: 540 nm | emission maximum [2, 8]: 561 nm | extinction coefficient ε [2, 8]: 70 000 M^−1 cm^−1 | fluorescence quantum yield [2, 8]: 0.79

solubility [3]: water-soluble | solubility ([3]; listed as 5-OH): much better soluble | stability of N-hydroxysuccinimidyl (NHS) ester [1]: forms a stable NHS ester | absorption maximum λmax [4, 9]: 532 nm | emission maximum λmax [4, 9]: 553 nm | extinction coefficient ε [4, 9]: 56000 M⁻¹ cm⁻¹ | fluorescence quantum yield Φfl, absolute value ([4]; aqueous solutions, excitation at 488 nm, dye 5 isomer 3): 0.89
Compound: O=C(O)c1ccc(C(=O)[O-])c(C2=c3cc4c(cc3Oc3cc5c(cc32)CC(O)CN5CC(F)(F)F)=[N+](CC(F)(F)F)CC(O)C4)c1 (stereo not drawn) [Compound 5, N,N′-Bis-(2,2,2-trifluoroethyl)-6′-carboxy-Q-rhodamine-β,β′-diol]

Compound: COc1cc2c(c(Cl)c1O)Oc1c(cc(OC)c(O)c1Cl)C21OC(=O)c2ccc(C(=O)O)cc21 [Compound 6-JOE, 6-JOE]
absorption maximum [2, 10]: 520 nm | emission maximum [2, 10]: 548 nm | extinction coefficient ε [2, 10]: 75 000 M^−1 cm^−1

Compound: CN(C)c1ccc2[c](c1)[Ge]([CH3])([CH3])[c]1cc(N(C)C)ccc1C21OC(=O)c2ccc(C(=O)NCCOCCOCCCCCCCl)cc21 [Compound 19-Halo]
imaging performance in living cells (confocal and STED) [5]: high contrast images

Compound: CN(C)c1ccc2[c](c1)[Ge]([CH3])([CH3])[c]1cc(N(C)C)ccc1C21OC(=O)c2ccc(C(=O)O)cc21 [Compound 19]
fluorescence quantum yield relative to Oxazine 1 [4]: 0.43 | absorption maximum λmax ([4]; PBS buffer pH 7.4): 634 nm | emission maximum λem ([4]; PBS buffer pH 7.4): 655 nm | extinction coefficient ε ([4]; PBS buffer pH 7.4): 97000 M⁻¹ cm⁻¹ | fluorescence quantum yield [4]: 0.43 | D0.5 in 1,4-dioxane/water [6]: 65.2

Compound: [CH3][Ge]1([CH3])[c]2cc(N3CC(O)C3)ccc2C2(OC(=O)c3ccc(C(=O)NCCOCCOCCCCCCCl)cc32)c2ccc(N3CC(O)C3)c[c]21 [Compound 33-Halo]
absorption maximum λmax ([4]; PBS buffer pH 7.4): 639 nm | emission maximum λem ([4]; PBS buffer pH 7.4): 660 nm

Compound: [CH3][Ge]1([CH3])[c]2cc(N3CC(O)C3)ccc2C2(OC(=O)c3ccc(C(=O)O)cc32)c2ccc(N3CC(O)C3)c[c]21 [Compound 33]
absorption maximum λmax ([4]; PBS buffer pH 7.4): 631 nm | emission maximum λem ([4]; PBS buffer pH 7.4): 651 nm | extinction coefficient ε ([4]; PBS buffer pH 7.4): 61000 M⁻¹ cm⁻¹ | fluorescence quantum yield Φfl, absolute value ([4]; PBS buffer pH 7.4): 0.60 | fluorescence quantum yield [4]: 0.60 | imaging performance in living cells (confocal and STED) [7]: higher brightness

Compound: C[Si]1(C)c2cc(N3CC(O)C3)ccc2C2(OC(=O)c3ccc(C(=O)O)cc32)c2ccc(N3CC(O)C3)cc21 [Compound 42]
fluorescence quantum yield relative to Oxazine 1 [4]: 0.42 | absorption maximum λmax ([4]; PBS buffer pH 7.4): 641 nm | emission maximum λem ([4]; PBS buffer pH 7.4): 662 nm | extinction coefficient ε ([4]; PBS buffer pH 7.4): 51500 M⁻¹ cm⁻¹ and 51000 M⁻¹ cm⁻¹ | fluorescence quantum yield [4]: 0.42 | D0.5 in 1,4-dioxane/water [6]: 72.4

fluorescence quantum yield [4]: 0.54
Compound: C[Si]1(C)c2cc(N3CCC3)ccc2C2(OC(=O)c3ccccc32)c2ccc(N3CCC3)cc21 [JF646, reference compound]

Compound: O=C(O)c1ccccc1C1=c2cc3c4c(c2Oc2c1cc1c5c2CCCN5CCC1)CCC[N+]=4CCC3.[Cl-] [Rhodamine 101]
fluorescence quantum yield ([2]; in both organic and aqueous solutions): more than 0.90

absorption maximum λmax ([4]; PBS buffer pH 7.4): 645 nm | emission maximum λem ([4]; PBS buffer pH 7.4): 661 nm | extinction coefficient ε ([4]; PBS buffer pH 7.4): 93000 M⁻¹ cm⁻¹ | fluorescence quantum yield [4]: 0.41 | D0.5 in 1,4-dioxane/water [6]: 64.5
Compound: CN(C)c1ccc2c(c1)[Si](C)(C)c1cc(N(C)C)ccc1C21OC(=O)c2ccccc21 [SiR, reference compound]

stability of N-hydroxysuccinimidyl (NHS) ester [1]: stable
Compound: N-Hydroxysuccinimidyl eater of N,N′-bis-(2,2,2-trifluoro-ethyl)-6′-carboxy-Q-rhodamine-β,β′-diol [Compound 5-NHS]
